Test results taken from patent US5843889A, “Glycopeptide antibiotic derivatives” (Eli Lilly and Company, priority 1997, dated 1998).
Converted amounts (≈) assume the structure as drawn.

What was measured:
Assay in all cases: MIC, standard broth micro-dilution assay
Assay type in all cases: cell-based
[1] = test system: Entercoccus faecalis 2041
Procedure: (§1) The formula I compounds have in vitro and in vivo activity against Gram-positive pathogenic bacteria. The MIC's were determined using a standard broth micro-dilution assay.

Entercoccus faecalis 276 = test system: Entercoccus faecalis 276
Procedure: as §1

[2] = test system: Entercoccus gallinarum 245
Procedure: as §1

| Structure (SMILES) | MIC [1] | MIC (Entercoccus faecalis 276) | MIC [2] |
| --- | --- | --- | --- |
| CNC(CC(C)C)C(=O)NC1C(=O)NC(CC(N)=O)C(=O)NC2C(=O)NC3C(=O)NC(C(=O)NC(C(=O)O)c4cc(O)cc(O)c4-c4cc3ccc4O)C(OC3CC(C)(N)C(O)C(C)O3)c3ccc(c(Cl)c3)Oc3cc2cc(c3OC2OC(CO)C(O)C(O)C2OC2CC(C)(NCc3ccc(-c4ccc(Br)cc4)cc3)C(O)C(C)O2)Oc2ccc(cc2Cl)C1O (centres unmarked) [Compound 230, 4-[4-bromophenyl]benzyl] | ≤ 0.06 µg/mL | ≤ 0.06 µg/mL | 2 µg/mL (≈ 1.09 µM) |
| CNC(CC(C)C)C(=O)NC1C(=O)NC(CC(N)=O)C(=O)NC2C(=O)NC3C(=O)NC(C(=O)NC(C(=O)O)c4cc(O)cc(O)c4-c4cc3ccc4O)C(OC3CC(C)(N)C(O)C(C)O3)c3ccc(c(Cl)c3)Oc3cc2cc(c3OC2OC(CO)C(O)C(O)C2OC2CC(C)(NCc3ccc4c(c3)CCO4)C(O)C(C)O2)Oc2ccc(cc2Cl)C1O (stereo not drawn) [Compound 82, S-[2,3-dihydrobenzfuryl]methyl] | 0.5 µg/mL (≈ 0.29 µM) | ≤ 0.06 µg/mL |  |
| CN[C@H](CC(C)C)C(=O)N[C@H]1C(=O)N[C@@H](CC(N)=O)C(=O)N[C@H]2C(=O)N[C@H]3C(=O)N[C@H](C(=O)N[C@H](C(=O)O)c4cc(O)cc(O)c4-c4cc3ccc4O)[C@H](O[C@H]3C[C@](C)(N)[C@@H](O)[C@H](C)O3)c3ccc(c(Cl)c3)Oc3cc2cc(c3O[C@@H]2O[C@H](CO)[C@@H](O)[C@H](O)[C@H]2O[C@H]2C[C@](C)(NCc3ccc(Oc4ccc(C(C)(C)C)cc4)cc3)[C@@H](O)[C@H](C)O2)Oc2ccc(cc2Cl)[C@H]1O [Compound 96, 4-[4-t-butylphenoxy]benzyl] | 1 µg/mL (≈ 0.546 µM) | 0.5 µg/mL (≈ 0.273 µM) | 2 µg/mL (≈ 1.09 µM) |
| C=CCOc1ccc(CNC2(C)CC(OC3C(Oc4c5cc6cc4Oc4ccc(cc4Cl)C(OC4CC(C)(N)C(O)C(C)O4)C4NC(=O)C(NC(=O)C6NC(=O)C(CC(N)=O)NC(=O)C(NC(=O)C(CC(C)C)NC)C(O)c6ccc(c(Cl)c6)O5)c5ccc(O)c(c5)-c5c(O)cc(O)cc5C(C(=O)O)NC4=O)OC(CO)C(O)C3O)OC(C)C2O)cc1 (centres unmarked) [Compound 7, 4-allyloxybenzyl] | 0.125 µg/mL (≈ 0.0719 µM) | 1 µg/mL (≈ 0.575 µM) | 0.5 µg/mL (≈ 0.288 µM) |
| CNC(CC(C)C)C(=O)NC1C(=O)NC(CC(N)=O)C(=O)NC2C(=O)NC3C(=O)NC(C(=O)NC(C(=O)O)c4cc(O)cc(O)c4-c4cc3ccc4O)C(OC3CC(C)(N)C(O)C(C)O3)c3ccc(c(Cl)c3)Oc3cc2cc(c3OC2OC(CO)C(O)C(O)C2OC2CC(C)(NCc3ccc(Cc4ccccc4)c(OC)c3)C(O)C(C)O2)Oc2ccc(cc2Cl)C1O (centres unmarked) [Compound 104, 4-benzyl-3-methoxybenzyl] | ≤ 0.06 µg/mL | ≤ 0.06 µg/mL | 2 µg/mL (≈ 1.11 µM) |
| CNC(CC(C)C)C(=O)NC1C(=O)NC(CC(N)=O)C(=O)NC2C(=O)NC3C(=O)NC(C(=O)NC(C(=O)O)c4cc(O)cc(O)c4-c4cc3ccc4O)C(OC3CC(C)(N)C(O)C(C)O3)c3ccc(c(Cl)c3)Oc3cc2cc(c3OC2OC(CO)C(O)C(O)C2OC2CC(C)(NCc3ccc(N=Nc4ccccc4)cc3)C(O)C(C)O2)Oc2ccc(cc2Cl)C1O (centres unmarked) [Compound 210, 4-[phenylazo]benzyl] | ≤ 0.06 µg/mL | ≤ 0.06 µg/mL | 1 µg/mL (≈ 0.56 µM) |
| CNC(CC(C)C)C(=O)NC1C(=O)NC(CC(N)=O)C(=O)NC2C(=O)NC3C(=O)NC(C(=O)NC(C(=O)O)c4cc(O)cc(O)c4-c4cc3ccc4O)C(OC3CC(C)(N)C(O)C(C)O3)c3ccc(c(Cl)c3)Oc3cc2cc(c3OC2OC(CO)C(O)C(O)C2OC2CC(C)(NCc3ccc(-c4cccs4)cc3)C(O)C(C)O2)Oc2ccc(cc2Cl)C1O (centres unmarked) [Compound 218, 4-[2-thienyl]benzyl] |  | ≤ 0.06 µg/mL | ≤ 0.06 µg/mL |
| CNC(CC(C)C)C(=O)NC1C(=O)NC(CC(N)=O)C(=O)NC2C(=O)NC3C(=O)NC(C(=O)NC(C(=O)O)c4cc(O)cc(O)c4-c4cc3ccc4O)C(O)c3ccc(c(Cl)c3)Oc3cc2cc(c3OC2OC(CO)C(O)C(O)C2OC2CC(C)(NCc3ccc(-c4ccccc4)cc3)C(O)C(C)O2)Oc2ccc(cc2Cl)C1O (centres unmarked) [Compound 181, 4-phenylbenzyl] |  | 2 µg/mL (≈ 1.24 µM) | ≤ 0.06 µg/mL |
| CNC(CC(C)C)C(=O)NC1C(=O)NC(CC(N)=O)C(=O)NC2C(=O)NC3C(=O)NC(C(=O)NC(C(=O)O)c4cc(O)cc(O)c4-c4cc3ccc4O)C(OC3CC(C)(N)C(O)C(C)O3)c3ccc(c(Cl)c3)Oc3cc2cc(c3OC2OC(CO)C(O)C(O)C2OC2CC(C)(NCc3ccc(OC(C)=O)cc3)C(O)C(C)O2)Oc2ccc(cc2Cl)C1O (centres unmarked) [Compound 138, 4-acetoxybenzyl] | ≤ 0.06 µg/mL | ≤ 0.06 µg/mL |  |
| CNC(CC(C)C)C(=O)NC1C(=O)NC(CC(N)=O)C(=O)NC2C(=O)NC3C(=O)NC(C(=O)NC(C(=O)O)c4cc(O)cc(O)c4-c4cc3ccc4O)C(OC3CC(C)(N)C(O)C(C)O3)c3ccc(c(Cl)c3)Oc3cc2cc(c3OC2OC(CO)C(O)C(O)C2OC2CC(C)(NCC=Cc3ccccc3)C(O)C(C)O2)Oc2ccc(cc2Cl)C1O (stereo not drawn) [Compound 38, trans-cinnamyl] | ≤ 0.06 µg/mL | 0.5 µg/mL (≈ 0.293 µM) |  |
| CNC(CC(C)C)C(=O)NC1C(=O)NC(CC(N)=O)C(=O)NC2C(=O)NC3C(=O)NC(C(=O)NC(C(=O)O)c4cc(O)cc(O)c4-c4cc3ccc4O)C(OC3CC(C)(N)C(O)C(C)O3)c3ccc(c(Cl)c3)Oc3cc2cc(c3OC2OC(CO)C(O)C(O)C2OC2CC(C)(NCCc3ccc(Oc4ccccc4)cc3)C(O)C(C)O2)Oc2ccc(cc2Cl)C1O (centres unmarked) [Compound 33, 4-phenoxyphenethyl] | ≤ 0.06 µg/mL | ≤ 0.06 µg/mL |  |
| CNC(CC(C)C)C(=O)NC1C(=O)NC(CC(N)=O)C(=O)NC2C(=O)NC3C(=O)NC(C(=O)NC(C(=O)O)c4cc(O)cc(O)c4-c4cc3ccc4O)C(OC3CC(C)(N)C(O)C(C)O3)c3ccc(c(Cl)c3)Oc3cc2cc(c3OC2OC(CO)C(O)C(O)C2OC2CC(C)(NCc3ccc(OCCOC(C)(C)C)cc3)C(O)C(C)O2)Oc2ccc(cc2Cl)C1O (centres unmarked) [Compound 154, 4-[2-t-butoxyethoxy]benzyl] |  | 0.5 µg/mL (≈ 0.278 µM) | 4 µg/mL (≈ 2.22 µM) |
| C=CCCCCCCCCNC1(C)CC(OC2C(Oc3c4cc5cc3Oc3ccc(cc3Cl)C(OC3CC(C)(N)C(O)C(C)O3)C3NC(=O)C(NC(=O)C5NC(=O)C(CC(N)=O)NC(=O)C(NC(=O)C(CC(C)C)NC)C(O)c5ccc(c(Cl)c5)O4)c4ccc(O)c(c4)-c4c(O)cc(O)cc4C(C(=O)O)NC3=O)OC(CO)C(O)C2O)OC(C)C1O (centres unmarked) [Compound 214, 9-decenyl] |  | 0.25 µg/mL (≈ 0.144 µM) | 2 µg/mL (≈ 1.16 µM) |
| CNC(CC(C)C)C(=O)NC1C(=O)NC(CC(N)=O)C(=O)NC2C(=O)NC3C(=O)NC(C(=O)NC(C(=O)O)c4cc(O)cc(O)c4-c4cc3ccc4O)C(OC3CC(C)(N)C(O)C(C)O3)c3ccc(c(Cl)c3)Oc3cc2cc(c3OC2OC(CO)C(O)C(O)C2OC2CC(C)(NCCc3ccc(Oc4ccccc4)cc3)C(O)C(C)O2)Oc2ccc(cc2Cl)C1O (centres unmarked) [Compound 63, 4-phenoxyphenethyl] |  | 0.5 µg/mL (≈ 0.28 µM) | 8 µg/mL (≈ 4.47 µM) |
| CNC(CC(C)C)C(=O)NC1C(=O)NC(CC(N)=O)C(=O)NC2C(=O)NC3C(=O)NC(C(=O)NC(C(=O)O)c4cc(O)cc(O)c4-c4cc3ccc4O)C(OC3CC(C)(N)C(O)C(C)O3)c3ccc(c(Cl)c3)Oc3cc2cc(c3OC2OC(CO)C(O)C(O)C2OC2CC(C)(NCc3c4ccccc4cc4ccccc34)C(O)C(C)O2)Oc2ccc(cc2Cl)C1O (centres unmarked) [Compound 13, 9-anthranylmethyl] |  | 0.5 µg/mL (≈ 0.28 µM) | 0.25 µg/mL (≈ 0.14 µM) |
| CNC(CC(C)C)C(=O)NC1C(=O)NC(CC(N)=O)C(=O)NC2C(=O)NC3C(=O)NC(C(=O)NC(C(=O)O)c4cc(O)cc(O)c4-c4cc3ccc4O)C(OC3CC(C)(N)C(O)C(C)O3)c3ccc(c(Cl)c3)Oc3cc2cc(c3OC2OC(CO)C(O)C(O)C2OC2CC(C)(NCc3ccc(-c4ccccc4C)c(C)c3)C(O)C(C)O2)Oc2ccc(cc2Cl)C1O (centres unmarked) [Compound 237, 4-[2-methylphenyl]-3-methylbenzyl] |  | 1 µg/mL (≈ 0.56 µM) | 1 µg/mL (≈ 0.56 µM) |
| CCc1ccc(-c2ccc(CNC3(C)CC(OC4C(Oc5c6cc7cc5Oc5ccc(cc5Cl)C(OC5CC(C)(N)C(O)C(C)O5)C5NC(=O)C(NC(=O)C7NC(=O)C(CC(N)=O)NC(=O)C(NC(=O)C(CC(C)C)NC)C(O)c7ccc(c(Cl)c7)O6)c6ccc(O)c(c6)-c6c(O)cc(O)cc6C(C(=O)O)NC5=O)OC(CO)C(O)C4O)OC(C)C3O)cc2)cc1 (centres unmarked) [Compound 90, 4-[4-ethylphenyl]benzyl] |  | 2 µg/mL (≈ 1.12 µM) | 2 µg/mL (≈ 1.12 µM) |
| CNC(CC(C)C)C(=O)NC1C(=O)NC(CC(N)=O)C(=O)NC2C(=O)NC3C(=O)NC(C(=O)NC(C(=O)O)c4cc(O)cc(O)c4-c4cc3ccc4O)C(OC3CC(C)(N)C(O)C(C)O3)c3ccc(c(Cl)c3)Oc3cc2cc(c3OC2OC(CO)C(O)C(O)C2OC2CC(C)(NCCc3cccc(OCc4ccccc4)c3)C(O)C(C)O2)Oc2ccc(cc2Cl)C1O (centres unmarked) [Compound 69, 3-benzyloxyphenethyl] |  | 0.5 µg/mL (≈ 0.277 µM) | 8 µg/mL (≈ 4.44 µM) |
| CNC(CC(C)C)C(=O)NC1C(=O)NC(CC(N)=O)C(=O)NC2C(=O)NC3C(=O)NC(C(=O)NC(C(=O)O)c4cc(O)cc(O)c4-c4cc3ccc4O)C(OC3CC(C)(N)C(O)C(C)O3)c3ccc(c(Cl)c3)Oc3cc2cc(c3OC2OC(CO)C(O)C(O)C2OC2CC(C)(NCc3ccc(Cl)c(C(=O)c4ccccc4)c3Cl)C(O)C(C)O2)Oc2ccc(cc2Cl)C1O (centres unmarked) [Compound 133, 3-benzoyl-2,4-dichlorobenzyl] |  | 1 µg/mL (≈ 0.539 µM) | 2 µg/mL (≈ 1.08 µM) |
| CCCCCCCCC#CCCCCCCNC1(C)CC(OC2C(Oc3c4cc5cc3Oc3ccc(cc3Cl)C(OC3CC(C)(N)C(O)C(C)O3)C3NC(=O)C(NC(=O)C5NC(=O)C(CC(N)=O)NC(=O)C(NC(=O)C(CC(C)C)NC)C(O)c5ccc(c(Cl)c5)O4)c4ccc(O)c(c4)-c4c(O)cc(O)cc4C(C(=O)O)NC3=O)OC(CO)C(O)C2O)OC(C)C1O (centres unmarked) [Compound 207, 7-hexadecynyl] |  | 0.25 µg/mL (≈ 0.138 µM) | 1 µg/mL (≈ 0.552 µM) |
| CNC(CC(C)C)C(=O)NC1C(=O)NC(CC(N)=O)C(=O)NC2C(=O)NC3C(=O)NC(C(=O)NC(C(=O)O)c4cc(O)cc(O)c4-c4cc3ccc4O)C(OC3CC(C)(N)C(O)C(C)O3)c3ccc(c(Cl)c3)Oc3cc2cc(c3OC2OC(CO)C(O)C(O)C2OC2CC(C)(NCCCCCCCCc3ccccc3)C(O)C(C)O2)Oc2ccc(cc2Cl)C1O (centres unmarked) [Compound 176, 8-phenyloctyl] |  | 2 µg/mL (≈ 1.12 µM) | 2 µg/mL (≈ 1.12 µM) |
